Results as given in ChEMBL document CHEMBL6087476, “Positive Charge-Concentrated Dimeric Lipopeptides with Enhanced Protease Resistance: A Potential Solution for Systemic Bacterial Infections” (J Med Chem, 2025).
Values after ≈ are worked out from the molar mass of the structure shown. Active and inactive are the calls of the source. The rule behind the calls is not given here.

Assays:
Escherichia coli [1] = test: Antimicrobial activity against Escherichia coli ATCC 25922 assessed as increase in absorbance incubated for 20 to 22 hrs; format: functional; details: time 20-22 hrs
Enterococcus faecalis = test: Antimicrobial activity against Enterococcus faecalis 29212 assessed as increase in absorbance incubated for 20 to 22 hrs; format: functional; details: time 20-22 hrs
Acinetobacter baumannii [2] = test: Antimicrobial activity against Acinetobacter baumannii AB1901 assessed as increase in absorbance incubated for 20 to 22 hrs; format: functional; details: time 20-22 hrs
Acinetobacter baumannii [3] = test: Antimicrobial activity against Acinetobacter baumannii AB1902 assessed as increase in absorbance incubated for 20 to 22 hrs; format: functional; details: time 20-22 hrs
Pseudomonas aeruginosa = test: Antimicrobial activity against Pseudomonas aeruginosa 25349 assessed as increase in absorbance incubated for 20 to 22 hrs; format: functional; details: time 20-22 hrs
Staphylococcus aureus = test: Antimicrobial activity against Staphylococcus aureus 11011 assessed as increase in absorbance incubated for 20 to 22 hrs; format: functional; details: time 20-22 hrs
Escherichia coli [4] = test: Antimicrobial activity against Escherichia coli ATCC 25922 assessed as increase in absorbance incubated for 20 to 22 hrs in presence of Mg2+ physiological salt; format: functional, organism-based; details: time 20-22 hrs
Escherichia coli [5] = test: Antimicrobial activity against Escherichia coli ATCC 25922 assessed as increase in absorbance incubated for 20 to 22 hrs in presence of […] physiological salt; format: functional, organism-based; details: time 20-22 hrs
Escherichia coli [6] = test: Antimicrobial activity against Escherichia coli ATCC 25922 assessed as increase in absorbance incubated for 4 hrs in presence of 50% serum; format: functional, organism-based
Escherichia coli [7] = test: Antimicrobial activity against Escherichia coli ATCC 25922 assessed as increase in absorbance at 8 mg/ml incubated for 8 hrs in presence of trypsin; format: functional, organism-based
Escherichia coli [8] = test: Antimicrobial activity against Escherichia coli ATCC 25922 assessed as increase in absorbance at 8 mg/ml incubated for 8 hrs in presence of pepsin; format: functional, organism-based
Chymotrypsin [9] = target: T1, Chymotrypsin (Homo sapiens, UniProt Q99895+P17538+P40313+Q6GPI1); test: Stability of compound assessed as chymotrypsin (unknown origin)-mediated compound structural integrity change at 8 mg/ml incubated for 1 to 8 hrs by 16.5% tricine-SDS-PAGE analysis; format: ADME, protein assay; details: time 1-8 hrs
Trypsin = Trypsin (Homo sapiens, UniProt P07477+P07478+P35030); test: Stability of compound assessed as trypsin (unknown origin)-mediated compound structural integrity change at 8 mg/ml incubated for 1 to 8 hrs by RP-HPLC analysis; format: ADME, protein assay; details: time 1-8 hrs
Chymotrypsin [10] = target: T1, Chymotrypsin; test: Stability of compound assessed as chymotrypsin (unknown origin)-mediated compound structural integrity change at 8 mg/ml incubated for 1 to 8 hrs by RP-HPLC analysis; format: ADME, protein assay; details: time 1-8 hrs
[11] = Stability of compound assessed as pepsin (unknown origin)-mediated compound structural integrity change at 8 mg/ml incubated for 1 to 8 hrs by RP-HPLC analysis; format: ADME; details: human, time 1-8 hrs
Escherichia coli [12] = test: Antibiofilm activity against Escherichia coli ATCC 25922 biofilm assessed as inhibition of biofilm formation at 2 uM; format: functional, organism-based
Lipopolysaccharide (LPS) = test: Binding affinity to Escherichia coli O111:B4 Lipopolysaccharide by fluorescent probe BODIPYTR-cadaverine (BC) assay; details: dose 1-16 µM
Escherichia coli [13] = test: Antimicrobial activity against Escherichia coli ATCC 25922 assessed as increase in absorbance at MIC concentration in presence of < 8 ug/ml Lipopolysaccharide incubated for 8 hrs; format: functional, organism-based; details: dose < 8.0 µg/ml
Cell membrane [14] = test: Induction of Outer membrane permeability in Escherichia coli ATCC 25922 incubated for 30 mins by N-phenyl-1-naphthylamine (NPN) uptake assay; format: subcellular; details: dose 1-16 µM
Cell membrane [15] = test: Induction of depolarization of cytoplasmic membrane (CM) in Escherichia coli ATCC 25922 assessed as fluorescence changes at 1/2 to 3 times of MIC measured after 1000 to 3000 seconds by fluorescent probe DiSC3-5 assay; format: subcellular; details: time 1000-3000 sec
Cell membrane [16] = test: Induction of cytoplasmic membrane (CM) permeabilization in Escherichia coli ATCC 25922 assessed as utilization of ONPG at 1/2 MIC; format: subcellular
Escherichia coli [17] = test: Induction of ROS accumulation in Escherichia coli ATCC 25922 at 4 uM incubated for 30 mins by DCFH-DA assay; format: functional, organism-based
Escherichia coli [18] = test: Induction of membrane damage in Escherichia coli ATCC 25922 assessed as damaged membrane surface (irregular vesicles protrusions) at 8 uM measured after 1 hr incubation by SEM analysis; format: functional, organism-based
Escherichia coli [19] = test: Induction of membrane damage in Escherichia coli ATCC 25922 assessed as damaged membrane surface by analysing leakage (hollow interiors) at 8 uM measured after 1 hr incubation by TEM analysis; format: functional, organism-based
Escherichia coli [20] = test: Induction of membrane damage in Escherichia coli ATCC 25922 assessed as ruptured membrane by analysing red fluorescence at 8 uM measured after 1 hr incubation by PI - live and dead staining based fluorescence microscopy; format: functional, organism-based
Escherichia coli [21] = test: Induction of membrane damage in Escherichia coli ATCC 25922 assessed as ruptured membrane by analysing green fluorescence at 8 uM measured after 1 hr incubation by SYTO - live and dead staining based fluorescence microscopy; format: functional, organism-based
Escherichia coli [22] = test: Bactericidal activity against Escherichia coli ATCC 25922 assessed as reduction in bacterial viability at 4 uM measured within 1 hr; format: functional
[23] = Toxicity in ICR mouse assessed as reduced mobility at 20 mg/kg, ip measured within 1 hr; format: organism-based; details: in vivo
[24] = Toxicity in ICR mouse assessed as alanine aminotransferase (ALT) level in serum at 5 to 20 mg/kg, ip measured after 3 days; format: organism-based; details: in vivo, 72 h, dose 5-20 mg/kg, time 3 day
[25] = Toxicity in ICR mouse assessed as alkaline phosphatase (ALP) level in serum at 5 to 20 mg/kg, ip measured after 3 days; format: organism-based; details: in vivo, 72 h, dose 5-20 mg/kg, time 3 day
[26] = Toxicity in ICR mouse assessed as aspartate aminotransferase (AST) level in serum at 5 to 20 mg/kg, ip measured after 3 days; format: organism-based; details: in vivo, 72 h, dose 5-20 mg/kg, time 3 day
Escherichia coli [27] = test: Antibacterial activity against Escherichia coli ATCC 25922 injected intraperitoneally in ICR mouse assessed as reduction bacterial load in spleen at 10 mg/kg, ip measured after 12 hrs by H and E staining based assay; format: functional, organism-based
Escherichia coli [28] = test: Antibacterial activity against Escherichia coli ATCC 25922 injected intraperitoneally in ICR mouse assessed as reduction bacterial load in kidney at 10 mg/kg, ip measured after 12 hrs by H and E staining based assay; format: functional, organism-based
Mus musculus = test: Anti-inflammatory activity against Escherichia coli ATCC 25922-induced peritonitis ICR mouse model assessed as decrease in IL-6 level in serum spleen at 10 mg/kg, ip measured after 12 hrs; format: functional, organism-based
Escherichia coli [29] = test: Antibacterial activity against Escherichia coli ATCC 25922 injected intraperitoneally in ICR mouse assessed as reduction in symptoms by measuring atrophied red medulla in spleen at 10 mg/kg, ip measured after 12 hrs by H and E staining based assay; format: functional, organism-based
Escherichia coli [30] = test: Antibacterial activity against Escherichia coli ATCC 25922 injected intraperitoneally in ICR mouse assessed as reduction in symptoms by measuring atrophy of renal glomeruli at 10 mg/kg, ip measured after 12 hrs by H and E staining based assay; format: functional, organism-based

Compound `CCCCCCCCCC(=O)NCCCC[C@H](N)C(=O)NCC(=O)NCC(=O)NCC(=O)N[C@H](CCCNC(=N)N)C(=O)N[C@@H](CCCNC(=N)N)C(=O)N[C@@H](CCCNC(=N)N)C(=O)N1CCC[C@H]1C(=O)N[C@@H](CSSC[C@H](NC(=O)[C@@H]1CCCN1C(=O)[C@H](CCCNC(=N)N)NC(=O)[C@H](CCCNC(=N)N)NC(=O)[C@@H](CCCNC(=N)N)NC(=O)CNC(=O)CNC(=O)CNC(=O)[C@@H](N)CCCCNC(=O)CCCCCCCCC)C(=O)O)C(=O)O` has an MIC (Escherichia coli [1]) of 4 µM (≈ 9.12 µg/mL), an MIC (Enterococcus faecalis) of 4 µM (≈ 9.12 µg/mL) and an MIC (Acinetobacter baumannii [2]) of 4 µM (≈ 9.12 µg/mL). The MIC (Acinetobacter baumannii [3]) was 8 µM (≈ 18.2 µg/mL), the MIC (Pseudomonas aeruginosa) was 4 µM (≈ 9.12 µg/mL) and the MIC (Staphylococcus aureus) was 8 µM (≈ 18.2 µg/mL). The Activity (Escherichia coli [4]) was “Active; C-C10)C-C Demonstrated Superior Physiological Salt Tolerance In Comparison To (N-C10)C-C”, the Activity (Escherichia coli [5]) was “Active; C-C10)C-C Demonstrated Superior Physiological Salt Tolerance In Comparison To (N-C10)C-C” and the Activity (Escherichia coli [6]) was “Active”. The Activity (Escherichia coli [7]) was “Active; Negligible Alteration In Mic Values Found”, the Activity (Escherichia coli [8]) was “Active; Negligible Alteration In Mic Values Found” and the Stability (Chymotrypsin [9]) was “Stable”. The Stability (Trypsin) was “Stable”, the Stability (Chymotrypsin [10]) was “Stable” and the Stability [11] was “Stable”. The Activity (Escherichia coli [12]) was “Active”, the Activity (Lipopolysaccharide (LPS)) was “Dose-dependent-effect” and the Activity (Escherichia coli [13]) was “Active”. The Activity (Cell membrane [14]) was “Dose-dependent-effect”, the Activity (Cell membrane [15]) was “Dose-dependent-effect” and the Activity (Cell membrane [16]) was “Active”. The Activity (Escherichia coli [17]) was “Active”, the Activity (Escherichia coli [18]) was “Active” and the Activity (Escherichia coli [19]) was “Active”. For the same compound, the Activity (Escherichia coli [20]) was “Active”, the Activity (Escherichia coli [21]) was “Active” and the Activity (Escherichia coli [22]) was 100%. The Activity [23] was “Toxic”, the Activity [24] was “Non-toxic” and the Activity [25] was “Non-toxic”. The Activity [26] was “Non-toxic”, the Activity (Escherichia coli [27]) was “Active” and the Activity (Escherichia coli [28]) was “Active”. The Activity (Mus musculus) was “Active”, the Activity (Escherichia coli [29]) was “Active” and the Activity (Escherichia coli [30]) was “Active”.
